This note sets out measurements from US20100144708A1, “HETEROCYCLIC COMPOUNDS CONTAINING NITROGEN ATOMS OR PHARMACEUTICALLY ACCEPTABLE SALTS THEREOF, PROCESS FOR THE PREPARATION THEREOF AND PHARMACEUTICAL COMPOSITION COMPRISING THE SAME FOR TREATMENT OF CANCER” (Korea Research Instititute of Bioscience and Biotechnology, priority 2006, published 2010).

Common to all, as to type: cell-based, Human
For one test, the system named is PC-3 (prostate cancer). As to the kind of experiment: Test for inhibition of tumor cell growth (SRB), PC-3. The following applies: 48 hours, SRB staining; for GI50: Homo sapiens, read-out: GI50 PC-3 (prostate ancer). The method, boiled down:
(§1)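 Cells seeded in RPMI 1640 with 5% FBS, exposed to compound (final […], units as printed) for 48 hours at 37° C with 5% CO2, including a time-zero plate. TCA-fixed, SRB-stained, absorbance at 540 nm as percent of control; GI50 is the 50% growth-inhibition concentration.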
A general note: The SRB assay estimates cell density from bound dye.

The test system of test [1] is MBA-MB-231 (breast cancer). As to the kind of experiment: Test for inhibition of tumor cell growth (SRB), MBA-MB-231. The following applies: 48 hours, SRB staining; for GI50: Homo sapiens. In outline: as §1
Another test concerns NUGC-3 (gastric cancer). As to the kind of experiment: Test for inhibition of tumor cell growth (SRB), NUGC-3. The following applies: 48 hours, SRB staining; for GI50: Homo sapiens, NUGC-3. In outline:
as §1

The next test relates to ACHN (kidney cancer). The test is described as follows: Test for inhibition of tumor cell growth (SRB), ACHN. The settings on record: 48 hours, SRB staining; for GI50: Homo sapiens, ACHN. In outline:
as §1

Take `CCCCCCCCCCCC(=O)N1CCC[N+](C)(C)CC1` [Example 117, 4-dodecanoyl-1,1-dimethyl-1,4-diazepan-1-ium iodide]: the GI50 – broadly, the concentration that inhibits growth by half – amounted to 0.5 µg/mL in the test with PC-3 (prostate cancer), 2.68 µg/mL in test [1], 0.6 µg/mL in the test with NUGC-3 (gastric cancer) and 1.07 µg/mL in the test with ACHN (kidney cancer).
The matching figures for `CCCCCCCCCC(=O)N1CC[N+](CC)(Cc2ccccc2)CC1` [Example 10, 1-benzyl-4-decanoyl-1-ethyl-piperazin-1-ium bromide]: greater than 10 µg/mL, greater than 10 µg/mL, greater than 10 µg/mL and greater than 10 µg/mL.
Consider `CCCCCCCCCCCCS(=O)(=O)N1CC[N+](CC)(Cc2ccc(F)cc2)CC1` [Example 97, 4-(dodecane-1-sulfonyl)-1-ethyl-1-(4-fluorobenzyl)piperazin-1-ium bromide], for which the GI50 with PC-3 (prostate cancer) amounted to 0.7 µg/mL; in test [1], 1.43 µg/mL; in the test on NUGC-3 (gastric cancer), 0.66 µg/mL; in the test with ACHN (kidney cancer), 1.21 µg/mL.
Take `CCCCCCCCCCCCCCS(=O)(=O)N1CC[N+](C)(Cc2ccccc2)CC1` [Example 70, 1-benzyl-1-methyl-4-(tetradecane-1-sulfonyl)piperazin-1-ium bromide]: the concentration for 50% growth inhibition (GI50) in the test with PC-3 (prostate cancer) was determined as 0.49 µg/mL; in test [1] it was 0.87 µg/mL; in the test on NUGC-3 (gastric cancer), 0.53 µg/mL; with ACHN (kidney cancer) it was 1.11 µg/mL.
Turning to `CCCCCCCCCCCS(=O)(=O)N1CC[N+](C)(CC)CC1` [Example 93, 1-ethyl-1-methyl-4-(undecane-1-sulfonyl)piperazin-1-ium iodide], the GI50 in the test on PC-3 (prostate cancer) turned out to be 0.67 µg/mL; in test [1] it was 2.71 µg/mL; in the test with NUGC-3 (gastric cancer), 0.62 µg/mL; with ACHN (kidney cancer), 1.11 µg/mL.
Take `CCCCCCCCCCCCCCCCCCS(=O)(=O)N1CC[N+](C)(CC)CC1` [Example 59, 1-ethyl-1-methyl-4-(octadecane-1-sulfonyl)piperazin-1-ium iodide]: the GI50 was found to be 0.84 µg/mL with PC-3 (prostate cancer), 2.05 µg/mL in test [1], 0.66 µg/mL with NUGC-3 (gastric cancer) and 1.07 µg/mL with ACHN (kidney cancer).
With `C=CC[N+]1(C)CCN(S(=O)(=O)CCCCCCCC)CC1` [Example 61, 1-allyl-1-methyl-4-(octane-1-sulfonyl)piperazin-1-ium bromide], the GI50 (with PC-3 (prostate cancer); in test [1]; in the test on NUGC-3 (gastric cancer); in the test on ACHN (kidney cancer)) was greater than 10 µg/mL each time.
Take `CCCCCCCCCCCS(=O)(=O)N1CC[N+](CC)(Cc2ccccc2)CC1` [Example 64, 1-benzyl-1-ethyl-4-(undecane-1-sulfonyl)piperazin-1-ium bromide]: the 50% growth inhibitory concentration (GI50) stood at 0.67 µg/mL in the test with PC-3 (prostate cancer), 2.07 µg/mL in test [1], 0.36 µg/mL in the test with NUGC-3 (gastric cancer) and 1.43 µg/mL in the test on ACHN (kidney cancer).
Turning to `C=CCCC[N+]1(CC)CCN(C(=O)CCCCCCCCCCCCCCC)CC1.[Br-]` [Example 24, 1-ethyl-4-hexadecanoyl-1-pent-4-enyl-piperazin-1-ium bromide], the GI50 was 0.45 µg/mL in the test with PC-3 (prostate cancer), 0.76 µg/mL in test [1], 0.4 µg/mL in the test with NUGC-3 (gastric cancer) and 0.78 µg/mL in the test with ACHN (kidney cancer).
Regarding `CCCCCCCCCCCCCCS(=O)(=O)N1CC[N+](C)(Cc2ccc(F)cc2)CC1` [Example 71, 1-(4-fluorobenzyl)-1-methyl-4-(tetradecane-1-sulfonyl)piperazin-1-ium bromide], the GI50 with PC-3 (prostate cancer) was 0.65 µg/mL; in test [1], 1.14 µg/mL; with NUGC-3 (gastric cancer), 0.82 µg/mL; in the test on ACHN (kidney cancer), 1.42 µg/mL.
Regarding “1-allyl-1-methyl-4-(tetradecane-1-sulfonyppiperazin-1-ium bromide [Example 69]”, the “GI50 PC-3 (prostate ancer)” value with PC-3 (prostate cancer) was 0.68 µg/mL. For the same compound, in test [1], the “GI50 MBA-MB-231 (breast cancer)” value came to 1.16 µg/mL. Also, the “GI50 NUGC-3 (gastric cancer)” value in the test with NUGC-3 (gastric cancer) was determined as 0.59 µg/mL. For the same compound, in the test with ACHN (kidney cancer), the “GI50 ACHN (kidney cancer)” value turned out to be 0.59 µg/mL.
For `CCCCCCCCCCS(=O)(=O)N1CC[N+](CC)(Cc2ccc(F)cc2)CC1` [Example 87, 4-(decane-1-sulfonyl)-1-ethyl-1-(4-fluorobenzyl)-piperazin-1-ium bromide], the GI50 in the test with PC-3 (prostate cancer) was 1.25 µg/mL; in test [1], greater than 10 µg/mL; with NUGC-3 (gastric cancer) it was 1.56 µg/mL; in the test on ACHN (kidney cancer), greater than 10 µg/mL.
Consider `CCCCCCCCCCCCCCS(=O)(=O)N1CC[N+](CC)(Cc2ccccc2)CC1` [Example 113, 1-benzyl-1-ethyl-4-(tetradecane-1-sulfonyl)piperazin-1-ium bromide], for which the GI50 amounted to 0.41 µg/mL with PC-3 (prostate cancer), 1.23 µg/mL in test [1], 1.22 µg/mL in the test with NUGC-3 (gastric cancer) and 1.05 µg/mL in the test with ACHN (kidney cancer).
Consider `C=CCC[N+]1(C)CCN(C(=O)CCCCCCCCCCCCCCC)CC1.[Br-]` [Example 20, 1-but-3-enyl-4-hexadecanoyl-1-methyl-piperazin-1-ium bromide], for which the GI50 with PC-3 (prostate cancer) came to 0.67 µg/mL; in test [1], 1.52 µg/mL; in the test on NUGC-3 (gastric cancer) it was 0.72 µg/mL; in the test on ACHN (kidney cancer) it was 1.58 µg/mL.
Consider `CCCCCCCCCCCCCCCCCC(=O)N1CC[N+](CC)(Cc2ccc(F)cc2)CC1` [Example 48, 1-ethyl-1-(4-fluorobenzyl)-4-stearoylpiperazin-1-ium bromide], for which the GI50 in the test on PC-3 (prostate cancer) was 0.68 µg/mL; in test [1], 1.49 µg/mL; in the test with NUGC-3 (gastric cancer), 1.19 µg/mL; in the test on ACHN (kidney cancer), 1.43 µg/mL.
Take `C=CC[N+]1(CC)CCN(S(=O)(=O)CCCCCCCCCC)CC1` [Example 80, 1-allyl-4-(decane-1-sulfonyl)-1-ethyl-piperazin-1-ium bromide]: the 50% growth inhibitory concentration (GI50) is 0.85 µg/mL in the test with PC-3 (prostate cancer), greater than 10 µg/mL in test [1], 0.89 µg/mL in the test with NUGC-3 (gastric cancer) and 3.07 µg/mL with ACHN (kidney cancer).
The matching figures for `C=CC[N+]1(CC)CCN(S(=O)(=O)CCCCCCCC)CC1` [Example 60, 1-allyl-1-ethyl-4-(octane-1-sulfonyl)piperazin-1-ium bromide]: greater than 10 µg/mL, greater than 10 µg/mL, greater than 10 µg/mL and greater than 10 µg/mL.
`C=CC[N+]1(C)CCN(C(=O)CCCCCCC)CC1.[Br-]` [Example 4, 1-allyl-1-methyl-4-octanoyl-piperazin-1-ium bromide]: the concentration for 50% growth inhibition (GI50) (with PC-3 (prostate cancer); in test [1]; with NUGC-3 (gastric cancer); in the test with ACHN (kidney cancer)) was greater than 10 µg/mL throughout.
With `CCCCCCCCCCCCS(=O)(=O)N1CC[N+](C)(Cc2ccc(C)cc2)CC1` [Example 90, 4-(dodecane-1-sulfonyl)-1-methyl-1-(4-methylbenzyl)piperazin-1-ium bromide], the GI50 with PC-3 (prostate cancer) turned out to be 1.57 µg/mL; in test [1], 2.56 µg/mL; in the test with NUGC-3 (gastric cancer), 1.98 µg/mL; with ACHN (kidney cancer), 3.22 µg/mL.
`C=CC[N+]1(C)CCN(C(=O)CCCCCCCCCCCCCCCCCCCCCCC)CC1` [Example 41, 1-allyl-1-methyl-4-tetracosanoylpiperazin-1-ium bromide]: the concentration for 50% growth inhibition (GI50) in the test with PC-3 (prostate cancer) is 3.36 µg/mL; in test [1], greater than 10 µg/mL; with NUGC-3 (gastric cancer) it was greater than 10 µg/mL; in the test with ACHN (kidney cancer) it was greater than 10 µg/mL.
In the case of `CCCCCCCCCCCCCCCCCCCCCCCC(=O)N1CC[N+](C)(Cc2ccccc2)CC1` [Example 40, 1-benzyl-1-methyl-4-tetracosanoylpiperazin-1-ium bromide], the GI50 was 4.79 µg/mL with PC-3 (prostate cancer), greater than 10 µg/mL in test [1], greater than 10 µg/mL in the test on NUGC-3 (gastric cancer) and greater than 10 µg/mL in the test on ACHN (kidney cancer).
As to `CCCCCCCCCCCCCCCCCC(=O)N1CC[N+](CC)(Cc2cccc([N+](=O)[O-])c2)CC1` [Example 49, 1-ethyl-1-(3-nitrobenzyl)-4-stearoylpiperazin-1-ium bromide], the concentration for 50% growth inhibition (GI50) in the test with PC-3 (prostate cancer) was determined as 3.14 µg/mL; in test [1] it was 5.38 µg/mL; in the test with NUGC-3 (gastric cancer), 3.63 µg/mL; in the test on ACHN (kidney cancer) it was 3.08 µg/mL.
On to `CCCCCCCCCCCCCC(=O)N1CCC[N+](C)(Cc2ccccc2)CC1` (stereo not shown) [Example 124, 1-benzyl-1-methyl-4-tetradecanoyl-1,4-diazepan-1-ium bromide], for which the GI50 in the test with PC-3 (prostate cancer) was 0.45 µg/mL; in test [1] it was 1.16 µg/mL; in the test with NUGC-3 (gastric cancer), 0.31 µg/mL; with ACHN (kidney cancer), 1 µg/mL.
Turning to `C=CCCCCCCCCC(=O)N1CC[N+](C)(Cc2ccccc2)CC1` [Example 44, 1-benzyl-1-methyl-4-undec-10-enoyl-piperazin-1-ium bromide], the GI50 in the test with PC-3 (prostate cancer) was 0.41 µg/mL; in test [1], greater than 10 µg/mL; in the test on NUGC-3 (gastric cancer), greater than 10 µg/mL; with ACHN (kidney cancer) it was greater than 10 µg/mL.
As for `CCCCCCCCCCCCCCCC(=O)N1CC[N+](CC)(Cc2ccccc2)CC1.[Br-]` [Example 21, 1-benzyl-1-ethyl-4-hexadecanoyl-piperazin-1-ium bromide], the GI50 with PC-3 (prostate cancer) is 0.55 µg/mL; in test [1], 1.16 µg/mL; with NUGC-3 (gastric cancer), 0.46 µg/mL; in the test with ACHN (kidney cancer) it was 0.92 µg/mL.
Turning to `CCCCCCCCCCCCCC(=O)N1CC[N+](CC)(Cc2cccc(C)c2)CC1` [Example 52, 1-ethyl-1-(3-methylbenzyl)-4-tetradecanoylpiperazin-1-ium bromide], the GI50 is 0.51 µg/mL in the test with PC-3 (prostate cancer), 1.6 µg/mL in test [1], 0.88 µg/mL in the test on NUGC-3 (gastric cancer) and 2.08 µg/mL in the test on ACHN (kidney cancer).
For the compound `CCCCCCCCCCCCCCCCCCS(=O)(=O)N1CC[N+](C)(Cc2ccccc2)CC1` [Example 115, 1-benzyl-1-methyl-4-(octadecane-1-sulfonyl)piperazin-1-ium bromide], the GI50 is 0.48 µg/mL in the test on PC-3 (prostate cancer), 0.91 µg/mL in test [1], 1.07 µg/mL in the test with NUGC-3 (gastric cancer) and 2.01 µg/mL in the test with ACHN (kidney cancer).
For `CCCCCCCCCCCCCCCCCC(=O)N1CC[N+](C)(Cc2ccccc2)CC1` [Example 25, 1-benzyl-1-methyl-4-octadecanoyl-piperazin-1-ium bromide], the GI50 in the test with PC-3 (prostate cancer) is 0.4 µg/mL; in test [1] it was 0.82 µg/mL; with NUGC-3 (gastric cancer), 1.05 µg/mL; in the test on ACHN (kidney cancer), 2.84 µg/mL.
